In patent US9856279B2 (AGIOS PHARMACEUTICALS, INC, priority 2011, dated 2018) one finds IC50 data, which are given here for 29 molecules.

Molecules are shown by their SMILES. pIC50: −log10 of the molar value.

The assay has as its target IDH1 R132H (Homo sapiens, UniProt O75874, R132H). Description: Assay for IDH1 R132H inhibitors (NADPH/aKG, resazurin detection). The class given is biochemical. The settings on record: enzyme assay of Example 12; read-out: IDH1R132H IC50. The essentials:
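Compound added to substrate mix (8 uM NADPH, 2 mM aKG), then enzyme mix (0.2 μg/ml IDH1 R132H); 50 min RT in 20 mM Tris pH 7.5, 150 mM NaCl, 10 mM MgCl2, 0.03% BSA. Resazurin detection mix (30 μM) 5 min RT; resorufin fluorescence Ex544/Em590.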
In general terms: Resazurin is reduced to fluorescent resorufin, in cell work by metabolically active cells.

The term pIC50 denotes −log10 of the IC50, conventionally taken in molar units.

IDH1 R132H, sequence (O75874 whole entry R132H): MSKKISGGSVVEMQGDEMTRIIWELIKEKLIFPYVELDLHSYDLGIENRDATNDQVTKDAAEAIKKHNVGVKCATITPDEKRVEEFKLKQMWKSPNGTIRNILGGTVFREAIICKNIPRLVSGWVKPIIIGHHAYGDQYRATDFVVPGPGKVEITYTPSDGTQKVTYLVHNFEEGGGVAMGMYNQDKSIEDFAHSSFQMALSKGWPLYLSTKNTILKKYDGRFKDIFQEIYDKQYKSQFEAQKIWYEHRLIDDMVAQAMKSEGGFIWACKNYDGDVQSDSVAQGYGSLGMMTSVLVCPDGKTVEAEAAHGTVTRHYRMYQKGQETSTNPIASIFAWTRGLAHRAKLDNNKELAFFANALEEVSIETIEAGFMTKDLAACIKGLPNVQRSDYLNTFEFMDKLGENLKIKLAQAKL

In the case of `N#Cc1cc(-c2cccc3c2CNC3=O)c(C2CC2)nc1N1CCN(C(=O)C2CC2)[C@H](C2CC2)C1` [Compound 464, (R)-2-(4-(Cyclopropanecarbonyl)-3-cyclopropylpiperazin-1-yl)-6-cyclopropyl-5-(1-oxoisoindolin-4-yl)nicotinonitrile], the negative-log IC50 (pIC50) was 6.00 to 6.30.

For `C[C@@H]1CN(c2nc(C3CC3)c(-c3ccc4ncoc4c3)cc2C#N)CCN1C(=O)C1CC1` [Compound 467, (R)-5-(benzo[d]oxazol-6-yl)-2-(4-(cyclopropanecarbonyl)-3-methylpiperazin-1-yl)-6-cyclopropylnicotinonitrile], the pIC50 was 6.00 to 6.30.

On to `Cc1cc2c(-c3cc(C#N)c(N4CCN(C(=O)CC(F)(F)F)[C@H](C5CC5)C4)nc3C3CC3)cccc2cn1` [Compound 471, (R)-6-cyclopropyl-2-(3-cyclopropyl-4-(3,3,3-trifluoropropanoyl)piperazin-1-yl)-5-(3-methylisoquinolin-5-yl)nicotinonitrile], for which the pIC50 is greater than 6.30.

As for `COCCC(=O)N1CCN(c2nc(C3CC3)c(-c3cnc(OC)c4ccccc34)cc2C#N)C[C@H]1C` [Compound 474, (R)-6-cyclopropyl-5-(1-methoxy-isoquinolin-4-yl)-2-[4-(3-methoxy-propionyl)-3-methyl-piperazin-1-yl]-nicotinonitrile], the pIC50 is greater than 6.30.

For `N#Cc1cc(-c2cccc3cnccc23)c(C2CC2)nc1N1CCN(C(=O)C2CC2)CC(F)C1` (centres unmarked) [Compound 477, 2-(4-(cyclopropanecarbonyl)-6-fluoro-1,4-diazepan-1-yl)-6-cyclopropyl-5-(isoquinolin-5-yl)nicotinonitrile], the pIC50 was 6.00 to 6.30.

`Cc1c(C#N)c(N2CCN(C(=O)C3CC3)[C@H](C3CC3)C2)nc(C2CC2)c1-c1cn[nH]c1` [Compound 478, (R)-2-(4-(cyclopropanecarbonyl)-3-cyclopropylpiperazin-1-yl)-6-cyclopropyl-4-methyl-5-(1H-pyrazol-4-yl)nicotinonitrile]: the negative-log IC50 (pIC50) is 6.00 to 6.30.

`N#Cc1cc(-c2cn[nH]c2)c(C2CC2)nc1N1CCN(C(=O)C2CC2)[C@H](C2CC2)C1` [Compound 479, (R)-2-(4-(cyclopropanecarbonyl)-3-cyclopropylpiperazin-1-yl)-6-cyclopropyl-5-(1H-pyrazol-4-yl)nicotinonitrile]: the pIC50 is 6.00 to 6.30.

`C[C@@H]1CN(c2nc(C3CC3)c(-c3cccc4ncoc34)cc2C#N)CCN1C(=O)C1CC1` [Compound 482, (R)-5-(benzo[d]oxazol-7-yl)-2-(4-(cyclopropanecarbonyl)-3-methylpiperazin-1-yl)-6-cyclopropylnicotinonitrile]: the pIC50 was greater than 6.30.

Turning to `CC1CN(c2nc(C3CC3)c(-c3cccc4cnccc34)cc2C#N)CC(F)CN1C(=O)C1CC1` (centres unmarked) [Compound 484, 2-(4-(cyclopropanecarbonyl)-6-fluoro-3-methyl-1,4-diazepan-1-yl)-6-cyclopropyl-5-(isoquinolin-5-yl)nicotinonitrile], the pIC50 is 6.00 to 6.30.

As for `N#CCn1cc(-c2cc(C#N)c(N3CCN(C(=O)C4CC4)[C@H](C4CC4)C3)nc2C2CC2)cn1` [Compound 486, (R)-5-(1-(cyanomethyl)-1H-pyrazol-4-yl)-2-(4-(cyclopropanecarbonyl)-3-cyclopropylpiperazin-1-yl)-6-cyclopropylnicotinonitrile], the pIC50 is 6.00 to 6.30.

For `N#Cc1cc(-c2ccc3ncsc3c2)c(C2CC2)nc1N1CCN(C(=O)C2CC2)[C@H](C2CC2)C1` [Compound 487, (R)-5-(benzo[d]thiazol-6-yl)-2-(4-(cyclopropanecarbonyl)-3-cyclopropylpiperazin-1-yl)-6-cyclopropylnicotinonitrile], the pIC50 was greater than 6.30.

With `COC(=O)N1CCN(c2nc(C3CC3)c(-c3cccc4cnccc34)cc2C#N)C[C@H]1C1CC1` [Compound 489, (R)-methyl 4-(3-cyano-6-cyclopropyl-5-(isoquinolin-5-yl)pyridin-2-yl)-2-cyclopropylpiperazine-1 carboxylate], the negative-log IC50 (pIC50) is 6.00 to 6.30.

Consider `N#Cc1cc(-c2cnn(CCO)c2)c(C2CC2)nc1N1CCN(C(=O)C2CC2)[C@H](C2CC2)C1` [Compound 490, (R)-2-(4-(cyclopropanecarbonyl)-3-cyclopropylpiperazin-1-yl)-6-cyclopropyl-5-(1-(2-hydroxyethyl)-1H-pyrazol-4-yl)nicotinonitrile], for which the pIC50 is 6.00 to 6.30.

For `N#Cc1cc(-c2cnn(C3CCC(O)C3)c2)c(C2CC2)nc1N1CCN(C(=O)C2CC2)[C@H](C2CC2)C1` (stereo partly drawn) [Compound 493, 2-((R)-4-(cyclopropanecarbonyl)-3-cyclopropylpiperazin-1-yl)-6-cyclopropyl-5-(1-(3-hydroxycyclopentyl)-1H-pyrazol-4-yl)nicotinonitrile], the pIC50 is 6.00 to 6.30.

Take `N#Cc1cncc(-c2cc(C#N)c(N3CCN(C(=O)C4CC4)[C@H](C4CC4)C3)nc2C2CC2)c1` [Compound 494, (R)-6-(4-(cyclopropanecarbonyl)-3-cyclopropylpiperazin-1-yl)-2-cyclopropyl-[3,3′-bipyridine]-5,5′-dicarbonitrile]: the negative logarithm of the IC50 (pIC50) was greater than 6.30.

As for `N#Cc1cc(-c2cnnc3ccccc23)c(C2CC2)nc1N1CCN(C(=O)C2CC2)[C@H](C2CC2)C1` [Compound 495, (R)-5-(cinnolin-4-yl)-2-(4-(cyclopropanecarbonyl)-3-cyclopropylpiperazin-1-yl)-6-cyclopropylnicotinonitrile], the pIC50 is 6.00 to 6.30.

Take `Cc1nccc2c(-c3cc(C#N)c(N4CCN(C(=O)C5CC5)[C@H](C5CC5)C4)nc3C3CC3)cccc12` [Compound 497, (R)-2-(4-(cyclopropanecarbonyl)-3-cyclopropylpiperazin-1-yl)-6-cyclopropyl-5-(1-methylisoquinolin-5-yl)nicotinonitrile]: the negative logarithm of the IC50 (pIC50) was greater than 6.30.

Turning to `N#Cc1cc(-c2cnn(CC(N)=O)c2)c(C2CC2)nc1N1CCN(C(=O)C2CC2)[C@H](C2CC2)C1` [Compound 501, (R)-2-(4-(5-cyano-6-(4-(cyclopropanecarbonyl)-3-cyclopropylpiperazin-1-yl)-2-cyclopropylpyridin-3-yl)-1H-pyrazol-1-yl)acetamide], the pIC50 is 6.00 to 6.30.

`CS(=O)(=O)n1cc(-c2cc(C#N)c(N3CCN(C(=O)C4CC4)[C@H](C4CC4)C3)nc2C2CC2)cn1` [Compound 502, (R)-2-(4-(cyclopropanecarbonyl)-3-cyclopropylpiperazin-1-yl)-6-cyclopropyl-5-(1-(methylsulfonyl)-1H-pyrazol-4-yl)nicotinonitrile]: the pIC50 was 6.00 to 6.30.

With `N#Cc1cc(-c2cnc3cnccn23)c(C2CC2)nc1N1CCN(C(=O)C2CC2)[C@H](C2CC2)C1` [Compound 503, (R)-2-(4-(cyclopropanecarbonyl)-3-cyclopropylpiperazin-1-yl)-6-cyclopropyl-5-(imidazo[1,2-a]pyrazin-3-yl)nicotinonitrile], the pIC50 was greater than 6.30.

Take `N#Cc1cc(-c2ccc3c(c2)C(=O)C(=O)N3)c(C2CC2)nc1N1CCN(C(=O)C2CC2)[C@H](C2CC2)C1` [Compound 504, (R)-2-(4-(cyclopropanecarbonyl)-3-cyclopropylpiperazin-1-yl)-6-cyclopropyl-5-(2,3-dioxoindolin-5-yl)nicotinonitrile]: the pIC50 is 6.00 to 6.30.

For the molecule `C[C@@H]1CN(c2nc(C3CC3)c(-c3cccc4cnccc34)cc2C#N)CCN1C(=O)[C@@H]1C[C@H]1CO` [Compound 505, 6-cyclopropyl-2-((R)-4-((1R,2R)-2-(hydroxymethyl)cyclopropanecarbonyl)-3-methylpiperazin-1-yl)-5-(isoquinolin-5-yl)nicotinonitrile], the pIC50 is greater than 6.30.

With `CN(C)c1nccc(-c2cc(C#N)c(N3CCN(C(=O)C4CC4)[C@H](C4CC4)C3)nc2C2CC2)n1` [Compound 506, (R)-2-(4-(cyclopropanecarbonyl)-3-cyclopropylpiperazin-1-yl)-6-cyclopropyl-5-(2-(dimethylamino)pyrimidin-4-yl)nicotinonitrile], the pIC50 was 6.00 to 6.30.

In the case of `N#Cc1cc(-c2ccnc(N)n2)c(C2CC2)nc1N1CCN(C(=O)C2CC2)[C@H](C2CC2)C1` [Compound 507, (R)-5-(2-aminopyrimidin-4-yl)-2-(4-(cyclopropanecarbonyl)-3-cyclopropylpiperazin-1-yl)-6-cyclopropylnicotinonitrile], the negative logarithm of the IC50 (pIC50) is 6.00 to 6.30.

For `N#Cc1cc(-c2ccnc(Cl)c2F)c(C2CC2)nc1N1CCN(C(=O)C2CC2)[C@H](C2CC2)C1` [Compound 509, (R)-2′-chloro-6-(4-(cyclopropanecarbonyl)-3-cyclopropylpiperazin-1-yl)-2-cyclopropyl-3′-fluoro-3,4′-bipyridine-5-carbonitrile], the negative-log IC50 (pIC50) was 6.00 to 6.30.

Take `CSCn1cc(-c2cc(C#N)c(N3CCN(C(=O)C4CC4)[C@H](C4CC4)C3)nc2C2CC2)cn1` [Compound 510, (R)-2-(4-(cyclopropanecarbonyl)-3-cyclopropylpiperazin-1-yl)-6-cyclopropyl-5-(1-((methylthio)methyl)-1H-pyrazol-4-yl)nicotinonitrile]: the pIC50 was 6.00 to 6.30.

Turning to `N#Cc1cc(-c2ccnc(NCCO)n2)c(C2CC2)nc1N1CCN(C(=O)C2CC2)[C@H](C2CC2)C1` [Compound 512, (R)-2-(4-(cyclopropanecarbonyl)-3-cyclopropylpiperazin-1-yl)-6-cyclopropyl-5-(2-(2-hydroxyethylamino)pyrimidin-4-yl)nicotinonitrile], the pIC50 was greater than 6.30.

As for `N#Cc1cc(-c2cccc3c2NC(=O)C3=O)c(C2CC2)nc1N1CCN(C(=O)C2CC2)[C@H](C2CC2)C1` [Compound 513, (R)-2-(4-(cyclopropanecarbonyl)-3-cyclopropylpiperazin-1-yl)-6-cyclopropyl-5-(2,3-dioxoindolin-7-yl)nicotinonitrile], the pIC50 is 6.00 to 6.30.

Regarding `N#Cc1cc(-c2cccc3cnccc23)c(C2CC2)nc1N1CCN(C(=O)CCC=O)[C@H](C2CC2)C1` [Compound 519, (R)-6-cyclopropyl-2-(3-cyclopropyl-4-(4-oxobutanoyl)piperazin-1-yl)-5-(isoquinolin-5-yl)nicotinonitrile], the pIC50 is 6.00 to 6.30.
